Measured values as given in ChEMBL document CHEMBL5537159, “Discovery and SAR of JTE-151: A Novel RORγ Inhibitor for Clinical Development” (J Med Chem, 2024).

Assays:
[1] = Lipophilicity, logD of compound by RP-HPLC analysis; assay type: physicochemical
[2] = Apparent permeability in human Caco-2 cells at 25 umol/L incubated for 2 hrs by LC/MS/MS analysis; assay type: ADME, cell-based; conditions: dose 25 µmol/L
[3] = Metabolic stability in human liver microsomes assessed as compound remaining at 5 umol/L measured after 60 mins by UPLC/MS analysis; assay type: ADME, Microsome; conditions: dose 5 µmol/L, read-out: Stability
[4] = target: T1, Nuclear receptor ROR-gamma (Homo sapiens, UniProt P51449); test: Inhibition of GAL4 DNA-binding domain fused RORgamma (unknown origin) transfected in CHO-K1 cells incubated for 2 days by luciferase assay; assay type: cell-based
T1 sequence (P51449 whole entry): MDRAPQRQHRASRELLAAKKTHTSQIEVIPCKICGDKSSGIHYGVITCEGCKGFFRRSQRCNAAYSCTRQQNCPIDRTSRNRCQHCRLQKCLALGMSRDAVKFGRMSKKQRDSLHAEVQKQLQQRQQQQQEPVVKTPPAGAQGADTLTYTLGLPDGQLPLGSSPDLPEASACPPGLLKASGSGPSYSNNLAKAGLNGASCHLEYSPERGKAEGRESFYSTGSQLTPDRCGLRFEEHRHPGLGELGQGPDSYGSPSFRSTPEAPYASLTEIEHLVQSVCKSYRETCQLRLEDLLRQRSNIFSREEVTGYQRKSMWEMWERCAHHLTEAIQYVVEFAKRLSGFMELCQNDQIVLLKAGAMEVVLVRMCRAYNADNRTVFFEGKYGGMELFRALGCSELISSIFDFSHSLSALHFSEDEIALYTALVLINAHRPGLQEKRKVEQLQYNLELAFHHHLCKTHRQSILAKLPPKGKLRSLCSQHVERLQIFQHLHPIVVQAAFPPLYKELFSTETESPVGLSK

| Structure (SMILES) | logD [1] | Papp at 2 h, 25 µM [2] | remaining at 1 h, 5 µM [3] | EC50 [4] |
| --- | --- | --- | --- | --- |
| CC(=O)N1C[C@H](C(=O)Nc2ccc(C)cc2C)[C@@H](c2nnc([C@H]3C[C@@H](CC(C)C)C3)n2C2CC2)C1 |  | 19.8 ×10⁻⁶ cm/s | 61% |  |
| Cc1ccc(NC(=O)CC(Cc2ncco2)c2nnc([C@H]3C[C@@H](CC(C)C)C3)n2C2CC2)c(C)c1 (mixture of isomers) | 4.5 | 27 ×10⁻⁶ cm/s | 75% | < 32 nM |
| Cc1ccc(NC(=O)C[C@@H](c2noc([C@H]3C[C@@H](CC(C)C)C3)c2C2CC2)C(C)(C)CC(=O)O)c(C)c1 | 5.2 | 27.7 ×10⁻⁶ cm/s | 53% |  |
| CCc1c([C@@H](CC(=O)O)CC(=O)Nc2ccc(C)cc2C)noc1[C@H]1C[C@@H](CC(C)C)C1 | 4.2 | 37.9 ×10⁻⁶ cm/s | 68% |  |
| Cc1ccc(NC(=O)C[C@H](c2nnc([C@H]3C[C@@H](CC(C)C)C3)n2C2CC2)[C@H]2C[C@@H](O)C2)c(C)c1 | 4.1 | 15.2 ×10⁻⁶ cm/s | 0% |  |
| Cc1ccc(NC(=O)C[C@H](Cc2nccs2)c2nnc([C@H]3C[C@@H](CC(C)C)C3)n2C2CC2)c(C)c1 | 4.6 | 29.4 ×10⁻⁶ cm/s | 69% | < 32 nM |
| Cc1ccc(NC(=O)C[C@H](Cc2nc(C(=O)O)cs2)c2noc([C@H]3C[C@@H](CC(C)C)C3)c2C2CC2)c(C)c1 | 4.2 | 7.5 ×10⁻⁶ cm/s | 71% | 110 nM |
| Cc1ccc(NC(=O)C[C@H](C[C@H]2C[C@@H](C(=O)O)C2)c2noc([C@H]3C[C@@H](CC(C)C)C3)c2C2CC2)c(C)c1 | 5.1 | 20.9 ×10⁻⁶ cm/s | 69% |  |
| Cc1ccc(NC(=O)C[C@H](Cc2ccc(C(=O)O)cc2)c2noc([C@H]3C[C@@H](CC(C)C)C3)c2C2CC2)c(C)c1 (mixture of isomers) | 4.7 | 14.3 ×10⁻⁶ cm/s | 67% |  |
| Cc1ccc(NC(=O)C[C@H](CC(=O)O)c2noc([C@H]3C[C@@H](C(C)(C)C(C)C)C3)c2C2CC2)c(C)c1 | 4.7 | 23.6 ×10⁻⁶ cm/s | 60% |  |
| Cc1ccc(NC(=O)C[C@H](CC(=O)O)c2noc([C@H]3C[C@@H](CCC(C)(C)C)C3)c2C2CC2)c(C)c1 | 5 | 22.8 ×10⁻⁶ cm/s | 61% |  |
| Cc1ccc(NC(=O)CC(c2nnc([C@H]3C[C@@H](CC(C)C)C3)n2C2CC2)C2CNC2)c(C)c1.Cl (mixture of isomers) | 3.7 | < 0.1 ×10⁻⁶ cm/s | 95% | > 20000 nM |
| Cc1ccc(NC(=O)C[C@H](CC(=O)O)c2noc([C@H]3C[C@@H](CC(C)C)C3)c2C(C)C)c(C)c1 | 4.4 | 23.3 ×10⁻⁶ cm/s | 37% | 660 nM |
| Cc1ccc(NC(=O)CC(CC(=O)N(C)C)c2nnc([C@H]3C[C@@H](CC(C)C)C3)n2C2CC2)c(C)c1 (mixture of isomers) | 4.3 | 18.3 ×10⁻⁶ cm/s | 27% | 150 nM |
| CCC(CC)C[C@H]1C[C@@H](c2onc([C@@H](CC(=O)O)CC(=O)Nc3ccc(C)cc3C)c2C2CC2)C1 | 4.9 | 13.6 ×10⁻⁶ cm/s | 88% |  |
| Cc1ccc(NC(=O)C[C@H](CCC(=O)O)C(=O)N(C[C@H]2C[C@@H](CC(C)(C)C)C2)C2CC2)c(Cl)c1 (mixture of isomers) | 4.5 | 30.6 ×10⁻⁶ cm/s | 73% |  |
| Cc1ccc(NC(=O)CC(CCC(=O)O)c2ncnc([C@H]3C[C@@H](CC(C)(C)C)C3)c2C2CC2)c(Cl)c1 (mixture of isomers) |  | 20.7 ×10⁻⁶ cm/s | 52% | 16 nM |
| Cc1ccc(NC(=O)CCc2nnc([C@H]3C[C@@H](CC(C)C)C3)n2C2CC2)c(C)c1 | 4.4 |  | 39% |  |
| CCC(C)(C)C[C@H]1C[C@@H](c2onc([C@@H](CC(=O)O)CC(=O)Nc3ccc(C)cc3C)c2C2CC2)C1 | 5 | 22.5 ×10⁻⁶ cm/s | 65% |  |
| Cc1ccc(NC(=O)C[C@H](CCC(=O)O)n2ncc([C@H]3C[C@@H](CC(C)(C)C)C3)c2C2CC2)c(Cl)c1 | 5 | 14.5 ×10⁻⁶ cm/s | 42% |  |
| Cc1ccc(NC(=O)C[C@H](OCC(=O)O)c2noc([C@H]3C[C@@H](CC(C)C)C3)c2C2CC2)c(C)c1 | 3.8 | 24.9 ×10⁻⁶ cm/s | 64% |  |

Continued, values first:

| logD [1] | Papp at 2 h, 25 µM [2] | remaining at 1 h, 5 µM [3] | EC50 [4] | Structure (SMILES) |
| --- | --- | --- | --- | --- |
| 4.2 | 33.1 ×10⁻⁶ cm/s | 67% |  | Cc1ccc(NC(=O)C[C@H](CC(=O)O)c2noc([C@H]3C[C@@H](CC(C)C)C3)c2C2CC2)c(F)c1 |
| 4.7 | 21.5 ×10⁻⁶ cm/s | 90% |  | Cc1ccc(NC(=O)C[C@H](CC(=O)O)c2noc([C@H]3C[C@@H](CCC(C)C)C3)c2C2CC2)c(C)c1 |
| 4.2 | 39.6 ×10⁻⁶ cm/s | 85% |  | Cc1cccc(C)c1NC(=O)C[C@H](CC(=O)O)c1noc([C@H]2C[C@@H](CC(C)C)C2)c1C1CC1 |
| 4.4 | 29.9 ×10⁻⁶ cm/s | 67% | 97 nM | CC(C)C[C@H]1C[C@@H](c2onc([C@@H](CC(=O)O)CC(=O)Nc3ccc(Cl)cc3F)c2C2CC2)C1 |
| 4.4 | 27.4 ×10⁻⁶ cm/s | 67% | 43 nM | Cc1ccc(NC(=O)C[C@H](CC(=O)O)c2noc([C@H]3C[C@@H](CC(C)C)C3)c2C2CC2)c(Cl)c1 |
| 4.5 | 17 ×10⁻⁶ cm/s | 64% | 63 nM | Cc1cc(C)c(C)c(NC(=O)C[C@H](CC(=O)O)c2noc([C@H]3C[C@@H](CC(C)C)C3)c2C2CC2)c1 |
| 4.3 | 40.6 ×10⁻⁶ cm/s | 78% |  | Cc1ccc(NC(=O)C[C@H](CC(=O)O)c2noc([C@H]3C[C@@H](CC(C)C)C3)c2C2CC2)c(C)c1 |
| 4.6 | 32 ×10⁻⁶ cm/s | 78% |  | Cc1cc(C)c(NC(=O)C[C@H](CC(=O)O)c2noc([C@H]3C[C@@H](CC(C)C)C3)c2C2CC2)cc1C |
| 4.4 | 21.8 ×10⁻⁶ cm/s | 76% |  | Cc1ccc(NC(=O)C[C@H](CC(=O)O)c2noc([C@H]3C[C@@H](CC(C)C)C3)c2C2CC2)c(C)c1C |
| 4.3 | 35.5 ×10⁻⁶ cm/s | 67% |  | Cc1cccc(NC(=O)C[C@H](CC(=O)O)c2noc([C@H]3C[C@@H](CC(C)C)C3)c2C2CC2)c1C |
| 4.7 | 31.4 ×10⁻⁶ cm/s | 61% |  | Cc1ccc(NC(=O)C[C@H](CCC(=O)O)c2noc([C@H]3C[C@@H](CC(C)C)C3)c2C2CC2)c(C)c1 |
| 4.5 | 32.4 ×10⁻⁶ cm/s | 65% |  | Cc1ccc(NC(=O)C[C@H](CC(=O)O)c2noc([C@H]3C[C@@H](CC(C)C)C3)c2C2CC2)cc1C |
| 4.5 | 33.7 ×10⁻⁶ cm/s | 52% |  | Cc1cc(C)cc(NC(=O)C[C@H](CC(=O)O)c2noc([C@H]3C[C@@H](CC(C)C)C3)c2C2CC2)c1 |
| 4.3 | 33.5 ×10⁻⁶ cm/s | 74% |  | CC(C)C[C@H]1C[C@@H](c2onc([C@@H](CC(=O)O)CC(=O)Nc3ccc(F)cc3Cl)c2C2CC2)C1 |
